Data: patent US20100130621A1, “USE OF HYDROXYTYROSOL AS ANTI-AGING AGENT” (DSM IP ASSETS B.V., priority 2007, published 2010)

Tests used:
skeletal muscle = conditions: oral administration of 1 g per day; cited from earlier work
PGC-1α = experiment: Western blot analysis of PGC-1α protein level in adipocytes; assay type: cell-based, murine; conditions: 3T3-L1 adipocytes, 1.0 μM; bell-shape effect from 0.1 to 10.0 μM; mean±SE
Experimental: Murine 3T3-L1 pre-adipocytes (American Type Culture Collection) were cultured in Dulbecco's Modified Eagle's Medium (DMEM) supplemented with 10% fetal bovine serum and allowed to reach confluence. Differentiation of pre-adipocytes was initiated with 1 μM insulin, 0.25 μM dexamethasone and 0.5 mM 3-isobutyl-1-methylxanthine in DMEM, supplemented with 10% fetal bovine serum. After 48 h, the culture medium was replaced with DMEM supplemented with 10% fetal bovine serum and 1 μM insulin. The culture medium was changed every other day with DMEM containing 10% fetal bovine serum. […] After treatment, cells were washed twice with ice-cold PBS, lysed in sample buffer (62.5 mM Tris-Cl pH 6.8, 2% SDS, 5 mM DTT) at room temperature and vortexed. Cell lysates were then boiled for 5 minutes and cleared by centrifugation (13,000 rpm, 10 minutes at 4° C.). Protein concentration was determined using the Bio-Rad DC protein assay. The soluble lysates (10 μg per lane) were subjected to 10% SDS-PAGE, proteins were then transferred to nitrocellulose membranes and blocked with 5% non-fat milk/TBST for 1 h at room temperature. […] Western blots were developed using ECL (Roche Manheim, Germany) and quantified by scanning densitometry.

[1] = tested on: mitochondrial electron transport complex I; experiment: Western blot of mitochondrial electron transport complex I protein in adipocytes; assay type: cell-based, murine; conditions: 3T3-L1 adipocytes, 48 hrs
Experimental: Murine 3T3-L1 pre-adipocytes (American Type Culture Collection) were cultured in Dulbecco's Modified Eagle's Medium (DMEM) supplemented with 10% fetal bovine serum and allowed to reach confluence. Differentiation of pre-adipocytes was initiated with 1 μM insulin, 0.25 μM dexamethasone and 0.5 mM 3-isobutyl-1-methylxanthine in DMEM, supplemented with 10% fetal bovine serum. After 48 h, the culture medium was replaced with DMEM supplemented with 10% fetal bovine serum and 1 μM insulin. The culture medium was changed every other day with DMEM containing 10% fetal bovine serum. […] After treatment, cells were washed twice with ice-cold PBS, lysed in sample buffer (62.5 mM Tris-Cl pH 6.8, 2% SDS, 5 mM DTT) at room temperature and vortexed. Cell lysates were then boiled for 5 minutes and cleared by centrifugation (13,000 rpm, 10 minutes at 4° C.). Protein concentration was determined using the Bio-Rad DC protein assay. The soluble lysates (10 μg per lane) were subjected to 10% SDS-PAGE, proteins were then transferred to nitrocellulose membranes and blocked with 5% non-fat milk/TBST for 1 h at room temperature. Membranes were incubated with primary antibodies directed against PPAR-γ (1:1000), PGC-1α (1:1000), α-tubulin (1:10 000), Complex I (1:2000), Complex II (1:2000), Complex III (1:2000) and Complex V (1:2000) in 5% milk/TBST at 4° C. overnight. After washing membranes with TBST three times, membranes were incubated with horseradish peroxidase-conjugated secondary antibody for 1 h at room temperature. Western blots were developed using ECL (Roche Manheim, Germany) and quantified by scanning densitometry.

## O=C1O[C@H]([C@@H](O)CO)C(O)=C1O [Vitamin C]
Skeletal muscle
  mitochondrial biogenesis in skeletal muscle: decreases mitochondrial biogenesis

## OCCc1ccc(O)c(O)c1 [hydroxytyrosol, 3,4-dihydroxyphenylethanol]
PGC-1α
  PGC-1α protein expression (maximum), vs. control: 205±52%
[1]; 0.1 μM
  mitochondrial electron transport complex I protein, vs. control: 131±16%
[1]; 1.0 μM
  mitochondrial electron transport complex I protein, vs. control: 163±31%
[1]; 10.0 μM
  mitochondrial electron transport complex I protein, vs. control: 138±21%
